The target in assay [1] is T1, specific GHB sites (high-affinity GHB binding site) (Rattus norvegicus, UniProt P11275).
T1 construct: using crude synaptic membranes prepared from rat cortex; from tissue; host or cells: rat cortex, crude synaptic membranes
Kind of assay: biochemical.

Assay [2] has as its target T1, specific GHB sites (high-affinity GHB binding site). Kind of assay: biochemical. Conditions: pH 6.
Assay [3] has as its target T2, CAMK2A (Rattus norvegicus, UniProt P11275).
T2 construct: host or cells: HEK293T
Kind of assay: biochemical. The format is binding. Conditions: whole cell lysates of CAMK2A-transfected HEK293T cells. The procedure:
Cells were transfected with rat CAMK2A (Origene construct RR201121) or rat CAMK2B (Origene construct RR200520) using PolyFect (Qiagen, West Sussex, UK) according to the manufacturer's protocol. Whole cell homogenates were prepared 48 hr post-transfection by washing the cells with ice-cold 1×PBS and harvesting by scraping. Cells were collected and centrifuged for 10 min at 1000×g. Cell pellets were resuspended in ice-cold 1×PBS and homogenized using 2×1 mm zirkonium beads in a bullet blender for 20 s at max speed (NextAdvance, NY, USA). Homogenates were cleared by centrifugation (10 min, 4° C., 14.000×g). Protein concentration was determined using the Bradford protein assay. 150-200 μg protein was incubated with 5 nM ^3H-A and test compound in 1 ml total volume for 1 hr at 0-4° C. […] Proteins were then precipitated by addition of ice-cold acetone (4× of the assay volume), vortexing and incubation at −20° C. for 1 hr. Proteins were filtrated rapidly through GF/C unifilters (Whatman) and washed. The dried filters were added scintillation liquid and radioactivity measured on a Tricarb 2100 Scintillation counter (Packard).
A) Principle of photoaffinity labelling workflow. […] After introduction of biotin through a Staudinger-Bertozzi ligation to EZ-Link™ Phosphine-PEG3-Biotin (ThermoFisher Scientific), the biotin-labelled proteins were affinity-purified and subjected to LC-MS/MS analysis. […] C)^3H-A binding to cortical membranes from CAMK2A and CAMK2B knock-out mouse brains.
Human/rat CAMK2A expressed in HEK cells was assayed in an in-house established ^3H-A filtration binding assay performed on whole cell lysates of CAMK2A-transfected HEK293T cells.

For assay [4], the target named is T3, GABAB receptor (Rattus norvegicus, UniProt Q9Z0U4).
T3 construct: using crude synaptic membranes prepared from rat cortex; from tissue; host or cells: rat cortex, crude synaptic membranes
In words: 3H-GABA binding assay for GABAB, rat cortex membranes. Here is the method: Following incubation by rapid filtration through GF/C unifilters (PerkinElmer, Boston, MA, USA), using a 96-well Packard cell-harvester (PerkinElmer) and three fast washes with ice-cold binding buffer, microscint scintillation fluid (PerkinElmer) was added to the dried filters, and the amount of filter-bound radioactivity was quantified in a Packard TopCount microplate scintillation counter (PerkinElmer). […] The binding reactions were terminated by rapid filtration through GF/C filters (Whatman), soaked in 0.1% polyethylene imine, using a Brandell 48-well harvester and rapid washing with ice-cold binding buffer. […] Data are presented as % specific binding (of control), and IC50 or Ki values calculated by means of non-linear regression curve-fitting and the Cheng-Prusoff equation, respectively.

Assay [5] relates to photothrombotic focal ischemia in C57BL/6J mice. In words: Photothrombotic mouse model of focal ischemia, infarct volume. It counts as in vivo. The note with it: day 7; for infarct size: saline 5.55. Here is the method:
(§1) All procedures were performed in accordance with the guidelines on the care and use of laboratory animals set out by the University of Otago, Animal Research Committee and the Guide for Care and Use of Laboratory Animals (NIH Publication No. 85-23, 1996). All in vivo studies were approved by the University of Otago Animal Ethics Committee and are reported according to the ARRIVE (Animal Research: Reporting In Vivo Experiments) guidelines. The photochemical cortical lesion model resembles situations of acute brain injury related clinically to stroke and traumatic brain injury (TBI). Focal ischemia was induced by photothrombosis in male C57BL/6J mice (8-10 weeks) weighing ˜23-30 g as previously described (Clarkson et al., 2010). Under anesthesia with isoflurane (2% to 2.5% in O2) mice were placed in a stereotactic apparatus, the skull exposed through a midline incision, cleared of connective tissue and dried. A cold light source (KL1500 LCD, Zeiss, Auckland, New Zealand) attached to a 40× objective providing a 2-mm diameter illumination was positioned 1.5 mm lateral from bregma. Then, 0.2 ml of Rose Bengal (Sigma-Aldrich, Auckland, New Zealand; 10 mg/ml in normal saline) was administered i.p. After 5 min, the brain was illuminated through the exposed intact skull for 15 min, while keeping body temperature at 37.0±0.3° C. degrees using a heating pad (Harvard apparatus, Holliston, MA, USA). The skin was glued and animals left in a cage placed on a heating pad during the wake-up phase. Mice were housed under a 12-hr light/dark cycle with ad libitum access to food and water. Further, the mice were monitored and weighed on a daily basis.
(§2) For in vivo studies, all compounds were dissolved in a mixture of sterile saline and H2O to obtain isotonicity (0.9%) and administered as 10 mg/ml and 10 μl of solution per gram mouse body weight. The injection of compound (i.p.) was performed 30 min, 3, 6 or 12 hrs after induction of the photothrombotic stroke. The vehicle groups received a corresponding volume of saline (0.9%) at the same time points (30 min, 3, 6 or 12 hrs).
For quantification of the infarcted area, animals were perfused with saline and then with 4% paraformaldehyde (PFA) and the brain dissected out and submerged in 4% PFA for post-fixing overnight. Then the brains were moved to 30% sucrose solution and kept at 4° C. until processing. Brains were cut in 30 μm sections, free-floating in anti-freeze media. Sections were mounted, stained for cresyl violet and the infarct volumes determined by measuring every 6th section through the entire infarct as described in Lie et al (2017). All analyses were performed by an observer blinded to the treatment groups. Brains from the pMCAO studies were flash-frozen in CO2 (gas) and processed into six parallel series of sections (30 μm). Separate series were collected on glass slides and used for infarct size analysis or in Eppendorf tubes and used for qPCR. The glass slides were stored at −80° C. until further processing, and then Cresyl-Violet stained and quantified as described for the photothrombotic photochemical method.

Assay [6] has the same test system. In words: Photothrombotic model, behavioural assessment (grid-walking and cylinder tasks). It counts as in vivo. Conditions: day 7. Here is the method:
as §1, §2
Forelimb motor performance was determined using the cylinder and grid-walking tasks as previously described (Clarkson et al., 2010). All animals were tested both in a pre- and post-testing session, 1 week before and 3 days or 7 days after the ischemic insult, respectively. Observers who scored the behaviour were blinded to the treatment groups.

Assay [7] has as its system wild-type and GABAB receptor knock-out mice. In words: Temperature recording (hypothermia) in mice. It counts as in vivo. Conditions: 750 mg/kg i.p., 2 hrs. Here is the method:
Mice were pre-treated with saline injections (0.9% saline) i.p. for 4 days prior to the experiment to minimize stress on the day of the experiment. Experiments were conducted in a quiet room, in which mice were left undisturbed for at least two hrs prior to the experiment. After the i.p. injections, mice were left in their home cages for two hrs, had core body temperature recorded, and were then euthanized. The core body temperature was measured rectally by a thermometer (model DM 852; ELLAB Instruments; Copenhagen, Denmark) via a lubricated thermistor probe (model PRA-22002-A, 2.2 mm diameter; ELLAB Instruments). Mice were held at the base of the tail and measured until a stable temperature measurement was obtained.
By contrast, compound A had no effect on hypothermia in either wild-type or knock-out mice.

The test system of assay [8] is GABAB(1) receptor knock-out mice. In words: Glucose metabolism study, 14C-2-deoxyglucose autoradiography. The note with it: 200 mg/kg i.p., after 45 min. The format is in vivo.
The mark [9] stands for this setting: FIG. 1D, read-out: Ki, competition in the 3H-A binding assay.
The mark [10] stands for this setting: 50 mg/kg i.p. 3 hrs after injury.
[11] abbreviates: read-out: Ki, inhibition of 3H-B binding.

Molecules are shown by their SMILES. Read-outs that look alike come from different tables or passages of the source.

T1 sequence (P11275 whole entry): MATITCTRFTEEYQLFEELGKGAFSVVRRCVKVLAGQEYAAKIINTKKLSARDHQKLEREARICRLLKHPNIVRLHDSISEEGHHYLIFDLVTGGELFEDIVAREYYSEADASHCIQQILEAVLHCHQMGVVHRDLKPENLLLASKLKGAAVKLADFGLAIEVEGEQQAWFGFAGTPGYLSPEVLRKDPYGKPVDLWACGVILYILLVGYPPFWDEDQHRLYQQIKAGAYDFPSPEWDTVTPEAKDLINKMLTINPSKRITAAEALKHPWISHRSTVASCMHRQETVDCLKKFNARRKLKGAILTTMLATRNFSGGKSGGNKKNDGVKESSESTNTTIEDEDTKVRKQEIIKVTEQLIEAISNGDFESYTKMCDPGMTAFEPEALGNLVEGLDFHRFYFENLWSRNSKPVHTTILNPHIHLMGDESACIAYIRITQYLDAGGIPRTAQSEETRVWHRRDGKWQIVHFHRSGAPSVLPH
T3 sequence (Q9Z0U4 17-960 limits assumed): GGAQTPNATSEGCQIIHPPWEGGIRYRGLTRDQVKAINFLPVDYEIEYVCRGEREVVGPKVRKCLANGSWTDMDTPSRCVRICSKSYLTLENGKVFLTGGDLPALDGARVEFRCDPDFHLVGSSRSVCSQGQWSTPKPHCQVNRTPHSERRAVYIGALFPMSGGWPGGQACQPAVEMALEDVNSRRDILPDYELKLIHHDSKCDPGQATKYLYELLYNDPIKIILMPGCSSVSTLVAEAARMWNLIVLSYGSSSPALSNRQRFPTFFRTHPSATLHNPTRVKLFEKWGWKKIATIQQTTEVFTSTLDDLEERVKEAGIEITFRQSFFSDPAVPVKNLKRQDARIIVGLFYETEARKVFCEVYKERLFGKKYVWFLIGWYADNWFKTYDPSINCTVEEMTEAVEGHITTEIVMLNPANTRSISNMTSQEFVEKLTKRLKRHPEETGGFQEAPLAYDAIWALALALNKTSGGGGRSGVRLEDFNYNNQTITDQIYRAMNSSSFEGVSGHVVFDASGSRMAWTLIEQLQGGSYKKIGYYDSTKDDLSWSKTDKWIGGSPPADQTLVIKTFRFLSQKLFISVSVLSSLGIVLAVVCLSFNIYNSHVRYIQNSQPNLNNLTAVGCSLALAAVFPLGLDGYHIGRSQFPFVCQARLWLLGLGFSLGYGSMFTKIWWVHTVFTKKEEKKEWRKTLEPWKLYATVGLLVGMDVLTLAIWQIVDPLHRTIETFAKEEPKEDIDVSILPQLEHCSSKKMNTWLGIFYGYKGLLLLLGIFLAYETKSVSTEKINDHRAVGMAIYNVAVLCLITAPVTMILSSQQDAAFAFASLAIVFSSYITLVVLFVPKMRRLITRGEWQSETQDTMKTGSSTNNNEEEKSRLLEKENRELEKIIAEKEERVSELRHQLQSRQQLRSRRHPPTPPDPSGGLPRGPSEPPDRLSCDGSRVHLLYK
T3 sequence (O88871 41-940 partner): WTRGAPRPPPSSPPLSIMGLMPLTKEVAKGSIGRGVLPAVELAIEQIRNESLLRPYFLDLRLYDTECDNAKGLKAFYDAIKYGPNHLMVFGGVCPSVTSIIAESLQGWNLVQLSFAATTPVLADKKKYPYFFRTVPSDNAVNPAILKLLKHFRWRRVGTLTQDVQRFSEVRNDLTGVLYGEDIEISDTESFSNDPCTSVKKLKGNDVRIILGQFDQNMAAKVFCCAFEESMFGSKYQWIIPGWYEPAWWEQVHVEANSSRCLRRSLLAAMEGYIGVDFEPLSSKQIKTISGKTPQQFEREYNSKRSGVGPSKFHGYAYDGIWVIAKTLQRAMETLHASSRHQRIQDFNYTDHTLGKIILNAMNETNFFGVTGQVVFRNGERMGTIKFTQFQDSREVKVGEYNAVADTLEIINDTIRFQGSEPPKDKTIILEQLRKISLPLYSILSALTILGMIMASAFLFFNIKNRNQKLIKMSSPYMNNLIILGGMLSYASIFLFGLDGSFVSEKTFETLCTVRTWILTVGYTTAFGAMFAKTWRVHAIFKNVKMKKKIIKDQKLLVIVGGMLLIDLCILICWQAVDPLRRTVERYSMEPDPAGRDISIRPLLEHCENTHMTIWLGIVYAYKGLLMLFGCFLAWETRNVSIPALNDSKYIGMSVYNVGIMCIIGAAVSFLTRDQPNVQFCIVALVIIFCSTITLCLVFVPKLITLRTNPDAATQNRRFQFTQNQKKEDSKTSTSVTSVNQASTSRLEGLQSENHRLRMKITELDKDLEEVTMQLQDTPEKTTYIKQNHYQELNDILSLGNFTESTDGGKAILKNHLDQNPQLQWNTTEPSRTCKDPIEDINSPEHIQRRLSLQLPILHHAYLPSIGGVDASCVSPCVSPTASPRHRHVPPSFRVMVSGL
T2 sequence (P11275 whole entry): as the sequence (P11275 whole entry) above

As for `O=C(O)Cc1ccccc1Nc1c(Cl)cc(O)cc1Cl` [4′-hydroxydiclofenac, reference compound], in assay [1] (setting [9]), the Ki was found to be 16 µM. With `O=C(O)/C=C1\CCCc2ccccc2C1O` (stereo not drawn) [B, (E,RS)-6,7,8,9-tetrahydro-5-hydroxy-5H-benzocyclohept-6-ylidene acetic acid, reference compound], the Ki in assay [2] turned out to be 0.44 µM; in assay [3], 3.71 µM. As to `O=C(O)Cc1cc(O)ccc1Nc1c(Cl)cccc1Cl` [C, 2-((2,6-dichlorophenyl)amino)-5-hydroxyphenylacetic acid], in assay [4] (at a concentration of 1 mM), the “inhibition of 3H-GABA binding to GABAB receptor” value is on record as “limited inhibition”. As for `O=C(O)/C=C1\CCCc2cc(-c3ccccc3)ccc2C1O` (stereo not drawn) [Compound 2, (E)-2-(5-hydroxy-2-phenyl-5,7,8,9-tetrahydro-6H-benzo[7]annulen-6-ylidene)acetic acid], the figures for the “decrease of infarct size vs saline” value in assay [5] (setting [10]) and in assay [5] (175 mg/kg i.p. 3 or 6 hrs after injury) were 39% and 38-46%, respectively. In addition, the infarct size in assay [5] (setting [10]) stood at 3.4 mm^3; in assay [5] (175 mg/kg i.p. 3 hrs after injury) it was 3.44 mm^3; in assay [5] (175 mg/kg i.p. 6 hrs after injury), 2.98 mm^3. In assay [6] (50 mg/kg 3 hrs after injury), the “motor performance in both asymmetry tests” value is listed as “significantly improved”. In addition, the “number of foot faults (grid-walking)” value in assay [6] (175 mg/kg, 6 hr group) is recorded as “significantly reduced”. In addition, in assay [6] (175 mg/kg, both 3 and 6 hrs), the “time spent on affected paw (cylinder task)” value was “significantly reduced”. Consider `O=C(O)/C=C1\CCCc2cc(/C=C/c3ccccc3)ccc2C1O` (stereo not drawn) [Compound 3, (E)-2-(5-hydroxy-2-((E)-styryl)-5,7,8,9-tetrahydro-6H-benzo[7]annulen-6-ylidene)acetic acid], for which the Ki in assay [2] turned out to be 0.03 µM; in assay [1] (pH 7.4, read-out: Ki, 3H-A binding assay), 0.087 µM; in assay [1] (read-out: Ki, inhibition of 3H-A binding, pH 6) it was 0.05 µM. With `O=C(O)/C=C1\CCCc2cc(Cl)ccc2C1O` (stereo not drawn) [Compound 4, (E)-2-(2-chloro-5-hydroxy-5,7,8,9-tetrahydro-6H-benzo[7]annulen-6-ylidene)acetic acid], the Ki in assay [2] (setting [11]) amounted to 0.052 µM.

For the compound `O=C(O)/C=C1\CCCc2cc(I)ccc2C1O` (stereo not drawn) [Compound 5, (E)-2-(2-iodo-5-hydroxy-5,7,8,9-tetrahydro-6H-benzo[7]annulen-6-ylidene)acetic acid], the Ki in assay [2] (setting [11]) was found to be 0.053 µM. `O=C(O)/C=C1\CCCc2cc(F)ccc2C1O` (stereo not drawn) [Compound 6, (E)-2-(2-fluoro-5-hydroxy-5,7,8,9-tetrahydro-6H-benzo[7]annulen-6-ylidene)acetic acid] registered a Ki in assay [2] of 0.108 µM. On to `Cc1ccc2c(c1)CCC/C(=C\C(=O)O)C2O` (stereo not drawn) [Compound 7, (E)-2-(2-methyl-5-hydroxy-5,7,8,9-tetrahydro-6H-benzo[7]annulen-6-ylidene)acetic acid], for which the Ki in assay [2] was 0.325 µM. Turning to `O=C(O)/C=C1\CCCc2c(Br)cccc2C1O` (stereo not drawn) [Compound 8, (E)-2-(1-bromo-5-hydroxy-5,7,8,9-tetrahydro-6H-benzo[7]annulen-6-ylidene)acetic acid], the Ki in assay [2] was determined as 0.225 µM.

For `O=C(O)/C=C1\CCCc2c(-c3ccccc3)cccc2C1O` (stereo not drawn) [Compound 9, (E)-2-(1-phenyl-5-hydroxy-5,7,8,9-tetrahydro-6H-benzo[7]annulen-6-ylidene)acetic acid], the Ki in assay [2] (setting [11]) came out at 0.382 µM. Consider `O=C(O)/C=C1\CCCc2ccc(Br)cc2C1O` (stereo not drawn) [Compound 10, (E)-2-(3-bromo-5-hydroxy-5,7,8,9-tetrahydro-6H-benzo[7]annulen-6-ylidene)acetic acid], for which the inhibition constant Ki in assay [2] (setting [11]) worked out at 9.69 µM. As to `O=C1CCCO1` [GBL, γ-butyrolactone], the “effect on body temperature (hypothermia)” value in assay [7] was “strong decreased in body temperature”. The “cerebral metabolic rate of glucose, hippocampus” value in assay [8] (saline 9.74) worked out at 6.45 nCi/ROI/min. Moreover, in assay [8] (saline 10.46), the “cerebral metabolic rate of glucose, frontal cortex” value amounted to 6.78 nCi/ROI/min.

As for `O=C(O)CCCO` [GHB, γ-hydroxybutyric acid], the “inhibition of 3H-GABA binding to GABAB receptor” value in assay [4] (at both 0.1 mM and 1 mM) is recorded as “could inhibit”. `O=C(O)Cc1ccccc1Nc1c(Cl)cccc1Cl` [diclofenac, reference compound]: the Ki in assay [1] (setting [9]) worked out at 4.7 µM.

One may read the Ki as the dissociation constant of the complex between target and ligand, obtained from inhibition or displacement.

These data come from patent publication US12077495B2 (priority 2018, dated 2024).
